Measured values taken from patent publication EP4563579A1, “MACROCYCLIC EGFR INHIBITOR, AND PREPARATION METHOD THEREFOR AND PHARMACEUTICAL USE THEREOF” (Abbisko Therapeutics Co., Ltd., priority 2022, dated 2024).
Where two headings read alike, the source gives them in different places.

Experiments:
A431 WT = assay: Cell proliferation assay (CellTiter-Glo), A431 WT; format: cell-based; details: A431 WT cells, 72 hour incubation, CTG readout
Description: (§1) • DMEM Medium (Gibco, Cat#11965118) • RPMI1640 Medium (Gibco, Cat#11875119) • Fetal Bovine Serum (FBS) (GBICO, Cat#10099-141) • CellTiter-Glo® Luminescent Cell Viability Assay Kit (Promega, Cat#G7572) 96-well, Black, Clear Flat Bottom Plate (Corning®, Cat# 3603)
(§2) • SpectraMax Multimode Microplate Reader MD, 2104-0010A; • CO2 Incubator, Thermo Scientific 3100 Series; • Biosafety Cabinet, Thermo Scientific, 1300 Series A2; • Inverted Microscope, Olympus, CKX41SF; • Siemens Refrigerator, KK25E76TI.
(§3) • 1. Cell Culture and Inoculation: • (1) Harvest cells in a logarithmic growth phase and count the cells using a […]. Test cell viability using a trypan blue exclusion method to ensure that cell viability is above 90%. • (2) Adjust the cell concentration to desired final density; and add 90 µL of cell suspension to a 96-well plate. • (3) Incubate the cells overnight at 37°C, under 5% CO2 and 95% humidity in the 96-well plate. • 2. T0 Reference Data: • (1) Add 10 µL PBS to each well of the T0 plate containing cells. • (2) Thaw the CTG reagent and equilibrate the plate to room temperature for 30 minutes. • (3) Add an equal volume of CTG solution to each well. • (4) Lyse cells by shaking on an orbital shaker for 5 minutes. • (5) Leave the plate at room temperature for 20 minutes to stabilize the luminescence signal. • (6) Read the T0 […]. • 3. Compound Dilution and Addition • (1) Add a corresponding volume of DMSO to a corresponding compound powder according to the compound information sheet to prepare a 10 mM stock solution. • (2) Prepare 1000-fold and 3.16-fold diluted compound solutions. • (3) Dilute the 1000× diluted compound solution 100-fold with PBS to prepare a 10-fold compound solution, with a maximum concentration of 10 µM, nine concentrations and 3.16-fold dilution. Then add 10 µL of the drug solution concentration to individual wells of the 96-well plate seeded with cells. Test each compound concentration in triplicate wells, and the final DMSO concentration is 0.1%. • (4) Incubate the cells in the 96-well plate containing the drug compounds at 37°C, under 5% CO2, and 95% humidity for an additional 72 hour period prior to performing the CTG analysis. • 4. Fluorescence Signal Reading • (1) Thaw the CTG reagent and equilibrate the plate to room temperature for 30 minutes. • (2) Add an equal volume of CTG solution to each well. • (3) Lyse cells by shaking on an orbital shaker for 5 minutes. • (4) Leave the plate at room temperature for 20 minutes to stabilize the […]. • (5) Read fluorescence value. • 5. Data Processing
(§4) Analyze the data by using GraphPad Prism 7.0 software, and use Non-linear S-curve regression to fit the dose-response curves, to calculate the IC50 values (in nM). The specific experiment results are presented in Table 1: [formula] Table 1: Biology Test Results

[1] = system: Ba/F3 EGFR-L858R-T790M-C797S (LTC); assay: Cell proliferation assay (CellTiter-Glo), Ba/F3 LTC; format: cell-based; details: Ba/F3 EGFR-L858R-T790M-C797S cells, 72 hour incubation, CTG readout
Description: as §1, §2, §3, §4

[2] = system: Ba/F3 EGFR-L858R-C797S (LC); assay: Cell proliferation assay (CellTiter-Glo), Ba/F3 LC; format: cell-based; details: Ba/F3 EGFR-L858R-C797S cells, 72 hour incubation, CTG readout
Description: as §1, §2, §3, §4

[3] = Pharmacokinetic experiment in mice; format: in vivo; details: male, mouse; ICR mice, single oral administration (PO), 10 mg/kg, plasma
Excerpt: The purpose of this trial is to study the pharmacokinetic behavior of some compounds of the present invention, and the administration method is: Single oral administration (PO) to ICR mice.
The compounds used in this trial are from the compounds in the specific examples of the present invention and the listed positive compounds.
ICR mice male N=9 original source: Shanghai Sippr-Bk Lab Animal Co., Ltd.
The compounds are weighed and dissolved in the corresponding solution (10% PG + 10% Solutol® + 80% pH3 citrate buffer). The mixture is then shaken well and sonicated to prepare a 1 mg/mL stock solution. Nine mice are orally administered at a dose of 10 mg/kg (or IV 2 mg/kg) after an overnight fast.
About 90 µL of blood is collected via the submandibular vein per time point, heparin sodium anticoagulant is added, the sample is placed on ice after collection, and plasma is centrifuged within 1 hour (centrifugation conditions: 8,000 rpm, 6 minutes, 2-8°C). The blood collection timepoints are 0, 0.25, 0.5, 1, 2, 4, 6, 8 and 24 h. The samples are stored in a -20°C refrigerator.
The plasma sample is 40 µL, 160 µL of ice-cold acetonitrile containing internal standard is added, vortexed for 3 minutes, and centrifuged at 11,000 rpm for 5 minutes. 100 µL of the supernatant is taken and added to 100 µL of water, 5 µL of the sample is taken and injected into LC/MS/MS for analysis.

Compound | IC50 (A431 WT; Homo sapiens, A-431) [nM] | IC50 ([1]; Mus musculus, BaF3) [nM] | IC50 ([2]; Mus musculus, BaF3) [nM] | AUC(0-t) [3] [ng·h/mL] | Cmax [3] [ng/mL] | half-life [3] [h] | IC50 (A431 WT) [nM] | IC50 ([1]; read-out: IC50 BaF3 LTC) [nM] | IC50 ([2]; read-out: IC50 BaF3 LC) [nM]
Cn1ncc2c1OCC1(CCCC1)Cn1nc(N3CC[C@@H](O)C3)c3cnc(cc31)Nc1ccnc-2n1 [Example 22, (R)-1-(1'-methylspiro(cyclopentane-1,6'-8-oxa-3-aza-4(6,1)-pyrazolo[4,3-c]pyridina-2(2,4)-pyrimidina-1(4,5)-pyrazolacyclooctaphane)-3' -yl)pyrrolidin-3-ol] | 409 | 5.9 | 13.2 | 2340 | 503 | 3 | – | – | –
Cn1ncc2c1OCC1(CCCC1)Cn1nc(N3CCC(NS(C)(=O)=O)C3)c3cnc(cc31)Nc1ccnc-2n1 (stereo in doubt) [Example 52, (R)-N-(1-(1'-methylspiro(cyclopentane-1,6'-8-oxa-3-aza-4(6,1)-pyrazolo[4,3-c]pyridina-2(2,4)-pyrimidina-1(4,5) -pyrazolacyclooctaphane)-3' -yl)pyrrolidin-3-yl)methanes ulfonamide] | 261 | 16.4 | 31 | – | – | – | – | – | –
Cn1ncc2c1OCC1(CCCC1)Cn1nc(N3CCC(F)(F)C3)c3cnc(cc31)Nc1ccnc-2n1 [Example 15, 3'-(3,3-difluoropyrrolidin-1-yl)-1'-methylspiro(cyclopentane-1,6'-8-oxa-3-aza-4(6, 1)-pyrazolo[4,3-c]pyridina-2(2,4)-pyrimidina-1(4,5)-pyrazolacyclooctaphane)] | 1050 | 32.4 | 84.4 | – | – | – | – | – | –
Cn1ncc2c1OCC1(CCCC1)Cn1nc(N3CC[C@H](NC(=O)C(F)(F)F)C3)c3cnc(cc31)Nc1ccnc-2n1 [Example 56] | 843 | 12.5 | 36.5 | – | – | – | – | – | –
CC(=O)N[C@@H]1CCN(c2nn3c4cc(ncc24)Nc2ccnc(n2)-c2cnn(C)c2OCC2(CCCC2)C3)C1 [Example 49] | – | – | – | – | – | – | 926 | 29.6 | 59.9
Cn1ncc2c1OCC1(CCCC1)Cn1nc(N3CC[C@H](C(C)(C)O)C3)c3cnc(cc31)Nc1ccnc-2n1 [Example 20, (S)-2-(1-(1'-methylspiro[cyclopentane-1,6'-8-oxa-3-aza-4(6,1)-pyrazolo[4,3-c]pyridina-2(2,4)-pyrimidina-1(4,5)-pyrazolacyclooctaphane]-3'-yl)pyrrolidin-3-yl)propan-2-ol] | 512 | 16 | 38 | – | – | – | – | – | –
Cn1ncc2c1OCC1(CCCC1)Cn1nc(C#CC3CCNCC3)c3cnc(cc31)Nc1ccnc-2n1 [Example 6, 1'-methyl-3'-(piperidin-4-ylethynyl)spiro(cyclopentane-1,6'-8-oxa-3-aza-4(6,1)-pyrazolo[4,3-c]pyridina-2(2,4)-pyrimidina-1(4,5)-pyrazolacyclooctaphane)] | 1360 | 28.3 | 35.6 | – | – | – | – | – | –
COC[C@@H]1CCN(c2nn3c4cc(ncc24)Nc2ccnc(n2)-c2cnn(C)c2OCC2(CCCC2)C3)C1 [Example 17, (R)-3'-(3-(methoxymethyl)pyrrolidin-1-yl)-1'-methyls piro(cyclopentane-1,6'-8-oxa-3-aza-4(6,1)-pyrazolo[4,3-c]pyridina-2(2,4)-pyrimidina-1(4,5)-pyrazolacyclooctaphane)] | 391 | 7.8 | 32.1 | – | – | – | – | – | –
Cn1ncc2c1OCC1(CCCC1)Cn1nc(N3CC[C@@H](NC(=O)C(F)(F)F)C3)c3cnc(cc31)Nc1ccnc-2n1 [Example 50] | 1060 | 20.7 | 86.5 | – | – | – | – | – | –
C[C@H]1CCOc2c(cnn2C)-c2nccc(n2)Nc2cc3c(cn2)c(C#CC2CCN(C)CC2)nn31 [Example A3, (S)-1^1,5-dimethyl-4^3-((1-methylpiperidin-4-yl)ethynyl)-1^1H,4^1H-8-oxa-3-aza-4(6,1) -pyrazolo[4,3-c]pyridina-2(2,4)-pyrimidina-1(4,5)-pyra zolacyclooctaphane] | 1840 | 62.1 | 53.3 | – | – | – | – | – | –
COCC[C@@H]1CCN(c2nn3c4cc(ncc24)Nc2ccnc(n2)-c2cnn(C)c2OCC2(CCCC2)C3)C1 [Example 18, (S)-3'-(3-(2-methoxyethyl)pyrrolidin-1-yl)-1'-methylspi ro(cyclopentane-1,6'-8-oxa-3-aza-4(6,1)-pyrazolo[4,3-c]pyridina-2(2,4)-pyrimidina-1(4,5)-pyrazolacyclooctaphane)] | 765 | 10.9 | 25.4 | – | – | – | – | – | –
CO[C@H]1CCN(c2nn3c4cc(ncc24)Nc2ccnc(n2)-c2cnn(C)c2OCC2(CCCC2)C3)C1 [Example 16, (S)-3'-(3-methoxypyrrolidin-1-yl)-1'-methylspiro(cyclopentane-1,6'-8-oxa-3-aza-4(6,1)-pyrazolo[4,3-c]pyridina-2(2,4)-pyrimidina-1(4,5)-pyrazolacyclooctaphane)] | 482 | 13.3 | 23.8 | – | – | – | – | – | –
COCC[C@H]1CCN(c2nn3c4cc(ncc24)Nc2ccnc(n2)-c2cnn(C)c2OCC2(CCCC2)C3)C1 [Example 19, (R)-3'-(3-(2-methoxyethyl)pyrrolidin-1-yl)-1'-methyls piro(cyclopentane-1,6'-8-oxa-3-aza-4(6,1)-pyrazolo[4,3-c]pyridina-2(2,4)-pyrimidina-1(4,5)-pyrazolacyclooctaphane)] | 771 | 11.3 | 19.5 | – | – | – | – | – | –
C[C@H]1CCOc2c(cnn2C)-c2nccc(n2)Nc2cc3c(cn2)c(C#CC2CN(C)C2)nn31 [Example A2, (S)-1^1,5-dimethyl-4^3-((1-methylazetidin-3-yl)ethynyl)-1^1 H,4^1H-8-oxa-3-aza-4(6,1)-p yrazolo[4,3-c]pyridina-2(2,4)-pyrimidina-1(4,5)-pyrazol acyclooctaphane] | 2490 | 167 | 176 | – | – | – | – | – | –
CN1CCC(F)(C#Cc2nn3c4cc(ncc24)Nc2ccnc(n2)-c2cnn(C)c2OCC2(CCC2)C3)CC1 [Example 12, 3'-((4-fluoro-1-methylpiperidin-4-yl)ethynyl)-1'-methyls piro(cyclobutane-1,6'-8-oxa-3-aza-4(6,1)-pyrazolo[4,3-c]pyridina-2(2,4)-pyrimidina-1 (4,5)-pyrazolacyclooctaphane)] | 629 | 61.9 | 124 | – | – | – | – | – | –
Cn1ncc2c1OCC1(CCCC1)Cn1nc(N3CC[C@H](NC(=O)OC(C)(C)C)C3)c3cnc(cc31)Nc1ccnc-2n1 [Example 47, Tert-butyl (S)-(1-(1'-methylspiro(cyclopentane-1,6'-8-oxa-3-aza-4(6,1)-pyrazolo[4,3-c]pyridina-2(2,4)-pyrimidina-1(4,5) -pyrazolacyclooctaphane)-3 '-yl)pyrrolidin-3-yl)carbam ate] | 2570 | 35.2 | 82 | – | – | – | – | – | –
